Test results published in patent US20050239656A1, “Pyridine compounds or salts thereof and herbicides containing the same” (priority 2002, published 2005).

What was measured:
rice (var. Nihonbare) = experiment: Test Example 3: paddy pot test, transplanted rice; type: in vivo, Oryza sativa L.; conditions: active ingredient 250 g/ha, applied 4th day after transplantation, visually observed 21st day after application, 0 = non-treated, 100 = complete kill
Method in brief: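 Rice (var. Nihonbare) at 2 leaf stage transplanted 3 cm deep into puddled paddy soil under 3–4 cm flooding; on day 4 after transplanting, diluted wettable powder or emulsifiable concentrate applied by pipette under submerged conditions at a set active-ingredient dose. Growth scored visually 21 days after application, 0 (untreated) to 100 (complete kill) %.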

prickly sida = experiment: Test Example 2: soil surface treatment, upland pot test; type: in vivo, Sida spinosa L.; conditions: active ingredient 500 g/ha
Method in brief: (§1)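 Pre-emergence soil-surface spray, 1 d after sowing; 1/170,000 ha pots, upland soil; WP or EC formulation, set a.i. rate, 1,500 L/ha water; visual growth-control score 0–100% at days 20–28 post-treatment.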

redroot pigweed = experiment: as above; type: in vivo, Amaranthus retroflexus L.; conditions: active ingredient 500 g/ha
Method in brief: as §1

corn = experiment: as above; type: in vivo, Zea mays L.; conditions: active ingredient 500 g/ha
Method in brief: as §1

green foxtail = experiment: as above; type: in vivo, Setaria viridis L.; conditions: active ingredient 500 g/ha
Method in brief: as §1

japanese ribbon wapato = experiment: Test Example 3: paddy pot test, application under submerged conditions; type: in vivo, Sagittaria pygniaea; conditions: active ingredient 250 g/ha; submerged application at primary leaf stage; visually observed 14 days after application; 0 = non-treated, 100 = complete kill
Method in brief: (§2)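 Visual growth-control rating (0 = untreated, 100 = complete kill) 14 days after treatment. The formulated compound, as a diluted wettable powder or emulsifiable concentrate, went into 3–4 cm flood water at a predetermined active-ingredient dose once the weeds reached 0.5 leaf stage (wapato: primary leaf stage).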

japanese bulrush = experiment: as above; type: in vivo, Scirpus juncoides; conditions: active ingredient 250 g/ha; submerged application at 0.5 leaf stage; visually observed 14 days after application; 0 = non-treated, 100 = complete kill
Method in brief: as §2

soybean = experiment: Test Example 2: soil surface treatment, upland pot test; type: in vivo, Glycine max Merr.; conditions: active ingredient 500 g/ha
Method in brief: as §1

barnyardgrass [1] = experiment: as above; type: in vivo, Echinochloa crus-galli L.; conditions: active ingredient 500 g/ha
Method in brief: as §1

rice = experiment: as above; type: in vivo, Oryza sativa L.; conditions: active ingredient 500 g/ha
Method in brief: as §1

crabgrass = experiment: as above; type: in vivo, Digitaria sanguinalis L.; conditions: active ingredient 500 g/ha
Method in brief: as §1

velvetleaf = experiment: as above; type: in vivo, Abutilon theophrasti MEDIC.; conditions: active ingredient 500 g/ha
Method in brief: as §1

barnyardgrass [2] = experiment: Test Example 3: paddy pot test, application under submerged conditions; type: in vivo, Echinochloa crus-galli L.; conditions: active ingredient 250 g/ha; submerged application at 0.5 leaf stage; visually observed 14 days after application; 0 = non-treated, 100 = complete kill
Method in brief: as §2

[3] = observed day 21, 0 = non-treated, 100 = complete kill

## CC(C)C(c1cnccc1C(F)(F)F)N(C)C(=O)COc1cc(F)ccc1F (centres unmarked) [Compound I-245]
Rice (var. Nihonbare)
  Growth controlling degree (%) Rice: 10%
Prickly sida; [3]
  Growth controlling degree (%) Prickly sida: 70%
Redroot pigweed; [3]
  Growth controlling degree (%) Redroot pigweed: 50%
corn; [3]
  Growth controlling degree (%) Corn: 50%
Green foxtail; [3]
  Growth controlling degree (%) Green foxtail: 80%
Japanese ribbon wapato
  Growth controlling degree (%) Japanese ribbon wapato: 70%
Japanese bulrush
  Growth controlling degree (%) Japanese bulrush: 95%
soybean; [3]
  Growth controlling degree (%) Soyabean: 40%
Barnyardgrass [1]; [3]
  Growth controlling degree (%) Barnyardgrass: 90%
rice; [3]
  Growth controlling degree (%) Rice: 35%
crabgrass; [3]
  Growth controlling degree (%) Crabgrass: 80%
velvetleaf; [3]
  Growth controlling degree (%) Velvetleaf: 0%
Barnyardgrass [2]
  Growth controlling degree (%) Barnyardgrass: 100%

## CC(C)C(c1cnccc1C(F)(F)F)N(C)C(=O)COc1ccc(F)cc1F (centres unmarked) [Compound I-246]
Rice (var. Nihonbare)
  Growth controlling degree (%) Rice: 10%
Prickly sida; [3]
  Growth controlling degree (%) Prickly sida: 80%
Redroot pigweed; [3]
  Growth controlling degree (%) Redroot pigweed: 50%
corn; [3]
  Growth controlling degree (%) Corn: 40%
Green foxtail; [3]
  Growth controlling degree (%) Green foxtail: 98%
Japanese ribbon wapato
  Growth controlling degree (%) Japanese ribbon wapato: 70%
Japanese bulrush
  Growth controlling degree (%) Japanese bulrush: 98%
soybean; [3]
  Growth controlling degree (%) Soyabean: 40%
Barnyardgrass [1]; [3]
  Growth controlling degree (%) Barnyardgrass: 98%
rice; [3]
  Growth controlling degree (%) Rice: 20%
crabgrass; [3]
  Growth controlling degree (%) Crabgrass: 95%
velvetleaf; [3]
  Growth controlling degree (%) Velvetleaf: 30%
Barnyardgrass [2]
  Growth controlling degree (%) Barnyardgrass: 100%

## CC(C)C(c1cnccc1Cl)N(C)C(=O)Cc1ccc(Cl)cc1 (centres unmarked) [I-82]
Rice (var. Nihonbare)
  Growth controlling degree (%) Rice: 30%
Prickly sida; observed 20th to 28th day
  Growth controlling degree (%) Prickly sida: 0%
Redroot pigweed; observed 20th to 28th day
  Growth controlling degree (%) Redroot pigweed: 60%
corn; observed 20th to 28th day
  Growth controlling degree (%) Corn: 10%
Green foxtail; observed 20th to 28th day
  Growth controlling degree (%) Green foxtail: 70%
Japanese ribbon wapato
  Growth controlling degree (%) Japanese ribbon wapato: 0%
Japanese bulrush
  Growth controlling degree (%) Japanese bulrush: 98%
soybean; observed 20th to 28th day
  Growth controlling degree (%) Soyabean: 0%
Barnyardgrass [1]; observed 20th to 28th day
  Growth controlling degree (%) Barnyardgrass: 80%
rice; observed 20th to 28th day
  Growth controlling degree (%) Rice: 30%
crabgrass; observed 20th to 28th day
  Growth controlling degree (%) Crabgrass: 90%
velvetleaf; observed 20th to 28th day
  Growth controlling degree (%) Velvetleaf: 0%
Barnyardgrass [2]
  Growth controlling degree (%) Barnyardgrass: 98%

## Cc1cccc(CC(=O)N(C)C(c2cnccc2C(F)(F)F)C(C)C)c1 (centres unmarked) [I-87]
Rice (var. Nihonbare)
  Growth controlling degree (%) Rice: 0%
Prickly sida; observed 20th to 28th day
  Growth controlling degree (%) Prickly sida: 100%
Redroot pigweed; observed 20th to 28th day
  Growth controlling degree (%) Redroot pigweed: 85%
corn; observed 20th to 28th day
  Growth controlling degree (%) Corn: 40%
Green foxtail; observed 20th to 28th day
  Growth controlling degree (%) Green foxtail: 95%
Japanese ribbon wapato
  Growth controlling degree (%) Japanese ribbon wapato: 70%
Japanese bulrush
  Growth controlling degree (%) Japanese bulrush: 90%
soybean; observed 20th to 28th day
  Growth controlling degree (%) Soyabean: 0%
Barnyardgrass [1]; observed 20th to 28th day
  Growth controlling degree (%) Barnyardgrass: 100%
rice; observed 20th to 28th day
  Growth controlling degree (%) Rice: 0%
crabgrass; observed 20th to 28th day
  Growth controlling degree (%) Crabgrass: 98%
velvetleaf; observed 20th to 28th day
  Growth controlling degree (%) Velvetleaf: 70%
Barnyardgrass [2]
  Growth controlling degree (%) Barnyardgrass: 100%

## Cc1ccc(CC(=O)N(C)C(c2cnccc2C(F)(F)F)C(C)C)cc1 (centres unmarked) [I-94]
Rice (var. Nihonbare)
  Growth controlling degree (%) Rice: 0%
Prickly sida; observed 20th to 28th day
  Growth controlling degree (%) Prickly sida: 100%
Redroot pigweed; observed 20th to 28th day
  Growth controlling degree (%) Redroot pigweed: 98%
corn; observed 20th to 28th day
  Growth controlling degree (%) Corn: 10%
Green foxtail; observed 20th to 28th day
  Growth controlling degree (%) Green foxtail: 100%
Japanese ribbon wapato
  Growth controlling degree (%) Japanese ribbon wapato: 90%
Japanese bulrush
  Growth controlling degree (%) Japanese bulrush: 98%
soybean; observed 20th to 28th day
  Growth controlling degree (%) Soyabean: 0%
Barnyardgrass [1]; observed 20th to 28th day
  Growth controlling degree (%) Barnyardgrass: 100%
rice; observed 20th to 28th day
  Growth controlling degree (%) Rice: 10%
crabgrass; observed 20th to 28th day
  Growth controlling degree (%) Crabgrass: 100%
velvetleaf; observed 20th to 28th day
  Growth controlling degree (%) Velvetleaf: 80%
Barnyardgrass [2]
  Growth controlling degree (%) Barnyardgrass: 100%
